Activity calls are given as the source filed them. The calls are words filed in the database; no cut-off is given here.
Tests used:
MDA-MB-231 [1] = assay: Antimetastatic activity against human MDA-MB-231 cells […] assessed as downregulation of MMP-9 at 30 uM incubated for 2 to 12 hrs by western blot analysis; type: functional, cell-based; conditions: time 2-12 hrs
MDA-MB-231 [2] = assay: Antimetastatic activity against human MDA-MB-231 cells xenografted in BALB/c mouse assessed as decrease in plasma S1P levels at 50 mg/kg, ip for 28 days; type: functional, organism-based; conditions: time 28.0 day
HT-29 [3] = assay: Induction of cell cycle arrest in human HT-29 cells assessed as accumulation at G0/G1 phase at 10 uM incubated for 24 hrs by PI staining based flow cytometry; type: functional
HT-29 [4] = assay: Induction of cell cycle arrest in human HT-29 cells assessed as accumulation at G0/G1 phase at 30 uM incubated for 24 hrs by PI staining based flow cytometry; type: functional
HT-29 [5] = assay: Induction of cell cycle arrest at G1 phase in human HT-29 cells assessed as increase in P21 expression at 30 uM incubated for 24 hrs by Western blot analysis; type: functional, cell-based
HT-29 [6] = assay: Induction of cell cycle arrest at G0/G1 phase in human HT-29 cells assessed as decrease in p-Rb expression at 10 to 30 uM incubated for 24 hrs by Western blot analysis; type: functional, cell-based; conditions: dose 10-30 µM
HT-29 [7] = assay: Induction of cell cycle arrest at G0/G1 phase in human HT-29 cells assessed as reduction in cyclinA expression at 10 to 30 uM incubated for 24 hrs by Western blot analysis; type: functional, cell-based; conditions: dose 10-30 µM
HT-29 [8] = assay: Induction of cell cycle arrest at G0/G1 phase in human HT-29 cells assessed as reduction in cyclinE1 expression at 10 to 30 uM incubated for 24 hrs by Western blot analysis; type: functional, cell-based; conditions: dose 10-30 µM
HT-29 [9] = assay: Induction of cell cycle arrest at G0/G1 phase in human HT-29 cells assessed as reduction in cyclinD1 expression at 10 to 30 uM incubated for 24 hrs by Western blot analysis; type: functional, cell-based; conditions: dose 10-30 µM
HT-29 [10] = assay: Induction of cell cycle arrest at G0/G1 phase in human HT-29 cells assessed as reduction in CDK6 expression at 10 to 30 uM incubated for 24 hrs by Western blot analysis; type: functional, cell-based; conditions: dose 10-30 µM
MDA-MB-231 [11] = assay: Induction of apoptosis in human MDA-MB-231 cells assessed as early apoptotic cells at 10 uM incubated for 48 hrs by Annexin V-FITC/PI staining based flow cytometry (reference value: 2.35 %); type: functional
HT-29 [12] = assay: Induction of apoptosis in human HT-29 cells at 30 uM incubated for 48 hrs by Annexin V-FITC/PI staining based flow cytometry relative to control; type: functional
HT-29 [13] = assay: Induction of apoptosis in human HT-29 cells assessed as increase in PARP cleavage at 30 uM measured after 48 hrs by western blot analysis; type: functional, cell-based
HT-29 [14] = assay: Induction of apoptosis in human HT-29 cells assessed as increase in caspase 3 cleavage at 30 uM measured after 48 hrs by western blot analysis; type: functional, cell-based
HT-29 [15] = assay: Induction of apoptosis in human HT-29 cells assessed as increase in caspase 8 cleavage at 30 uM measured after 48 hrs by western blot analysis; type: functional, cell-based
MDA-MB-231 [16] = assay: Induction of cell cycle arrest at G0/G1 phase in human MDA-MB-231 cells at 20 uM incubated for 24 hrs by PI staining based flow cytometry; type: functional
MDA-MB-231 [17] = assay: Induction of apoptosis in human MDA-MB-231 cells assessed as viable cells at 10 uM incubated for 48 hrs by Annexin V-FITC/PI staining based flow cytometry (reference value: 94.3 %); type: functional; conditions: read-out: Activity
MDA-MB-231 [18] = assay: Induction of apoptosis in human MDA-MB-231 cells assessed as viable cells at 30 uM incubated for 48 hrs by Annexin V-FITC/PI staining based flow cytometry (reference value: 94.3 %); type: functional; conditions: read-out: Activity
MDA-MB-231 [19] = assay: Antimigratory activity against human MDA-MB-231 cells assessed as reduction in cell migration at 20 uM incubated for 8 hrs by crystal violet staining microscopy based transwell migration assay; type: functional
[20] = Tmax in mouse at 50 mg/kg, po; type: ADME, organism-based; conditions: in vivo
[21] = Tmax in mouse at 50 mg/kg, ip; type: ADME, organism-based; conditions: in vivo
[22] = Cmax in mouse at 50 mg/kg, po; type: ADME, organism-based; parameters: dose 50 mg/kg, route po; conditions: in vivo
[23] = Cmax in mouse at 50 mg/kg, ip; type: ADME, organism-based; parameters: dose 50 mg/kg, route ip; conditions: in vivo
[24] = AUClast in mouse at 2 mg/kg, iv; type: ADME, organism-based; parameters: time 0 - last, dose 2 mg/kg, route iv; conditions: in vivo
[25] = AUClast in mouse at 50 mg/kg, po; type: ADME, organism-based; parameters: time 0 - last, dose 50 mg/kg, route po; conditions: in vivo
[26] = AUClast in mouse at 50 mg/kg, ip; type: ADME, organism-based; parameters: time 0 - last, dose 50 mg/kg, route ip; conditions: in vivo
[27] = Half life in mouse at 2 mg/kg, iv; type: ADME, organism-based; conditions: in vivo
[28] = Half life in mouse at 50 mg/kg, po; type: ADME, organism-based; conditions: in vivo
[29] = Half life in mouse at 50 mg/kg, ip; type: ADME, organism-based; conditions: in vivo
[30] = Clearance in mouse at 2 mg/kg, iv; type: ADME, organism-based; conditions: in vivo
[31] = Oral bioavailability in mouse at 50 mg/kg; type: ADME, organism-based; conditions: in vivo
[32] = Bioavailability in mouse at 50 mg/kg, ip; type: ADME, organism-based; conditions: in vivo
HT-29 [33] = assay: Antitumor activity against human HT-29 cells xenografted in BALB/c mouse assessed as tumor growth inhibition at 50 mg/kg/day, ip for 3 weeks and measured every 3 days by caliper method; type: functional, organism-based
[34] = Toxicity in BALB/c mouse xenografted with human HT-29 cells assessed as change in body weight at 50 mg/kg/day, ip for 3 weeks and measured every 3 days; type: organism-based; conditions: in vivo, 504 h
MDA-MB-231 [35] = assay: Antitumor activity against human MDA-MB-231 cells xenografted in BALB/c mouse assessed as tumor growth inhibition at 100 mg/kg/day, ip for 3 weeks and measured every 3 days by caliper method; type: functional, organism-based
MDA-MB-231 [36] = assay: Antitumor activity against human MDA-MB-231 cells xenografted in BALB/c mouse assessed as inhibition in lung metastasis at 75 mg/kg, ip treated for 28 days by H and E staining based assay; type: functional, organism-based; conditions: time 28.0 day
[37] = Toxicity in BALB/c mouse xenografted with human MDA-MB-231 cells assessed as body weight change at 50 to 75 mg/kg, ip administrated for 28 days; type: organism-based; conditions: in vivo, 672 h, dose 50-75 mg/kg, time 28 day
MDA-MB-231 [38] = assay: Antimetastatic activity against human MDA-MB-231 cells […] assessed as inhibition of NF-kappaB p65 phosphorylation at 30 uM incubated for 2 to 12 hrs by Western blot analysis; type: functional, cell-based; conditions: time 2-12 hrs
MDA-MB-231 [39] = assay: Antimetastatic activity against human MDA-MB-231 cells […] assessed as inhibition of FSCN1 phosphorylation at 30 uM incubated for 2 to 12 hrs by western blot analysis; type: functional, cell-based; conditions: time 2-12 hrs
MDA-MB-231 [40] = assay: Antimetastatic activity against human MDA-MB-231 cells […] assessed as upregulation of phosphorylated beta-catenin at 30 uM incubated for 2 to 12 hrs by western blot analysis; type: functional, cell-based; conditions: time 2-12 hrs
MDA-MB-231 [41] = assay: Antimetastatic activity against human MDA-MB-231 cells xenografted in BALB/c mouse assessed as decrease in plasma S1P levels at 75 mg/kg, ip for 28 days; type: functional, organism-based; conditions: time 28.0 day
MDA-MB-231 [42] = assay: Induction of apoptosis in human MDA-MB-231 cells assessed as necrotic cells at 10 uM incubated for 48 hrs by Annexin V-FITC/PI staining based flow cytometry (reference value: 1.42 %); type: functional
MDA-MB-231 [43] = assay: Induction of apoptosis in human MDA-MB-231 cells assessed as late apoptotic cells at 10 uM incubated for 48 hrs by Annexin V-FITC/PI staining based flow cytometry (reference value: 1.96 %); type: functional
MDA-MB-231 [44] = assay: Induction of apoptosis in human MDA-MB-231 cells assessed as early apoptotic cells at 30 uM incubated for 48 hrs by Annexin V-FITC/PI staining based flow cytometry (reference value: 2.35 %); type: functional
MDA-MB-231 [45] = assay: Induction of apoptosis in human MDA-MB-231 cells assessed as late apoptotic cells at 30 uM incubated for 48 hrs by Annexin V-FITC/PI staining based flow cytometry (reference value: 1.96 %); type: functional
MDA-MB-231 [46] = assay: Induction of apoptosis in human MDA-MB-231 cells assessed as necrotic cells at 30 uM incubated for 48 hrs by Annexin V-FITC/PI staining based flow cytometry (reference value: 1.42 %); type: functional
MDA-MB-231 [47] = assay: Antimigratory activity against human MDA-MB-231 cells assessed as inhibition of cell migration in human MDA-MB-231 cells at 20 uM incubated for 15 hrs by wound healing assay; type: functional, cell-based
CAL-51 = assay: Antimigratory activity against human CAL-51 cells assessed as inhibition in cell migration at 30 uM incubated for 16 hrs by crystal violet staining microscopy based transwell migration assay; type: functional

Compound: Cc1cc(OCc2ccc(CN3CCC[C@@H]3CO)cc2)cc(CS(=O)(=O)c2ccccc2)c1Br
- Activity (MDA-MB-231 [1]): Active
- Activity (MDA-MB-231 [2]): Active
- Activity (HT-29 [3]): Active
- Activity (HT-29 [4]): Active
- Activity (HT-29 [5]): Active
- Activity (HT-29 [6]): Active
- Activity (HT-29 [7]): Active
- Activity (HT-29 [8]): Active
- Activity (HT-29 [9]): Active
- Activity (HT-29 [10]): Active
- Activity (MDA-MB-231 [11]): 3.67%
- Activity (HT-29 [12]): 50%
- Activity (HT-29 [13]): Active
- Activity (HT-29 [14]): Active
- Activity (HT-29 [15]): Active
- Activity (MDA-MB-231 [16]): Active
- viability at 10 µM (MDA-MB-231 [17]): 65.4%
- viability at 30 µM (MDA-MB-231 [18]): 36.4%
- Activity (MDA-MB-231 [19]): Active
- Tmax [20]: 49.8 min
- Tmax [21]: 10.8 min
- Cmax [22]: 171 ng/mL
- Cmax [23]: 7860 ng/mL
- AUC(0-t) [24]: 408 ng·h/mL
- AUC(0-t) [25]: 242 ng·h/mL
- AUC(0-t) [26]: 8060 ng·h/mL
- half-life [27]: 134 min
- half-life [28]: 488 min
- half-life [29]: 252 min
- clearance [30]: 81.1 mL/min/kg
- bioavailability [31]: 2.38%
- bioavailability [32]: 79%
- Activity (HT-29 [33]): Active
- Activity [34]: Non-Toxic
- Activity (MDA-MB-231 [35]): Active
- Activity (MDA-MB-231 [36]): Active
- Activity [37]: Non-Toxic
- Activity (MDA-MB-231 [38]): Active
- Activity (MDA-MB-231 [39]): Active
- Activity (MDA-MB-231 [40]): Active
- Activity (MDA-MB-231 [41]): Active
- Activity (MDA-MB-231 [42]): 3.69%
- Activity (MDA-MB-231 [43]): 9.16%
- Activity (MDA-MB-231 [44]): 32.2%
- Activity (MDA-MB-231 [45]): 24.5%
- Activity (MDA-MB-231 [46]): 6.82%
- Activity (MDA-MB-231 [47]): Active
- Activity (CAL-51): Active

Source: ChEMBL document CHEMBL5154877, “Novel Sphingosine Kinase 1 Inhibitor Suppresses Growth of Solid Tumor and Inhibits the Lung Metastasis of Triple-Negative Breast Cancer” (J Med Chem, 2022)
